{"source": "patent US20090306050A1", "about": "“TREATMENT AND PREVENTION OF DEPRESSION WITH PAIN, DEPRESSION SECONDARY TO PAIN, AND OF NEUROPATHIC PAIN” (priority 2006, published 2009)", "key": {"ECG interval": {"system": "ECG interval", "conditions": "rats infused with the antidepressant; cited from earlier work"}, "[1]": {"conditions": "fatal poisoning/overdose, Scotland, England and Wales; cited from earlier work"}, "neuropathic pain": {"system": "neuropathic pain", "conditions": "in vivo; cited from earlier work"}, "NA and 5HT reuptake": {"system": "NA and 5HT reuptake", "assay": "NA versus 5HT reuptake selectivity from comparative Ki's (Bolden-Watson and Richelson)", "assay_type": "biochemical", "text": "There are a number of ways in which the ratio of NA to 5HT reuptake in antidepressant molecules may be measured. The selectivity a drug for various receptors may be compared by use of comparative Ki's and not comparative IC 50 values. (Bolden-Watson, C and Richelson, E., Life Sci, (52), 1993, 1023-1029), which is hereby incorporated by reference."}, "D2 receptor": {"target": "D2 receptor (Homo sapiens, UniProt P14416)", "sequence (P14416 whole entry)": "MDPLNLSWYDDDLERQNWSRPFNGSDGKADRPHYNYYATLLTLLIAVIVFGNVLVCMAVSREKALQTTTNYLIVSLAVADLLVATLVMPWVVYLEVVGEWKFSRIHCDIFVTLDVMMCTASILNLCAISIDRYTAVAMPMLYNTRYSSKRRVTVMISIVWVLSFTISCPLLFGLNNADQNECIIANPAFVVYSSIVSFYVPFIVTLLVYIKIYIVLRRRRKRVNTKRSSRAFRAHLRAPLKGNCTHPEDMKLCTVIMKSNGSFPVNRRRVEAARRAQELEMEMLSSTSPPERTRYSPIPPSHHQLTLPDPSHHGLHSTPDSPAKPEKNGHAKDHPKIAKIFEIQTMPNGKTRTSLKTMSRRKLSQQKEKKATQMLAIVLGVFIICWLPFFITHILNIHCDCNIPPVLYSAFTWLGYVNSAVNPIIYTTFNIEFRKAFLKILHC", "assay": "activity at the dopamine D2 receptor"}, "[2]": {"system": "major depression with aches and pains", "assay": "Example 1: patients with major depression and multiple aches and pains", "assay_type": "in vivo", "conditions": "three patients, commenced 70 mg twice daily, final 140mg to 280mg daily", "experimental": "Three patients who fulfilled criteria for major depression present with multiple aches and pains for which there is no obvious physical cause. […] The final dose of medication ranges from 140mg daily to 280mg daily."}, "severe neuropathic pain": {"system": "severe neuropathic pain", "assay": "Example 2: diabetic clinic patients with severe neuropathic pain", "assay_type": "in vivo", "text": "Four patients at a diabetic clinic present with severe neuropathic pain. Conventional analgesics are of no benefit."}, "serotonin synthesis": {"system": "serotonin synthesis", "assay": "serotonin synthesis in the brain", "conditions": "in vivo"}, "sedation": {"assay": "sedation", "conditions": "in vivo"}}, "data": [{"smiles": "CN(C)CCCN1c2ccccc2CCc2ccccc21", "note": "[imipramine]", "values": [{"measurement": "prolongation of the ECG interval", "setting": "ECG interval", "result": "prolong the ECG interval"}]}, {"smiles": "CNCCCN1c2ccccc2CCc2ccccc21", "note": "[desipramine]", "values": [{"measurement": "fatalities per million prescriptions", "setting": "[1]", "result": 200.9, "unit": "per million prescriptions"}, {"measurement": "prolongation of the ECG interval", "setting": "ECG interval", "result": "prolong the ECG interval"}]}, {"smiles": "CC(NC(C)(C)C)C(=O)c1cccc(Cl)c1", "note": "(centres unmarked) [buproprion]", "values": [{"measurement": "effectiveness in neuropathic pain", "setting": "neuropathic pain", "result": "has not been found to be effective"}]}, {"smiles": "CN(CCCN1c2ccccc2CCc2ccccc21)CC(=O)c1ccc(Cl)cc1", "note": "[lofepramine]", "values": [{"measurement": "NA:5HT ratio relative to desipramine", "setting": "NA and 5HT reuptake", "result": "about four times that of desipramine"}, {"measurement": "NE: 5-HT ratio relative to milnacipran", "setting": "NA and 5HT reuptake", "result": "higher than that of milnacipran"}, {"measurement": "activity at the D2 receptor", "setting": "D2 receptor", "result": "potent activity"}, {"measurement": "improvement in symptoms including pain", "setting": "[2]", "result": "All three show improvement in all symptoms including pain within four weeks"}, {"measurement": "relief of neuropathic pain", "setting": "severe neuropathic pain; four diabetic patients, 70 mg tds, after failure of analgesics and duloxetine", "result": "dramatic relief of pain in 3 of the 4 cases"}, {"measurement": "response after escalation of the dose", "setting": "severe neuropathic pain; patient 4, escalated dose", "result": "results in improvement"}, {"measurement": "effect on serotonin synthesis in the brain", "setting": "serotonin synthesis", "result": "up-regulate serotonin synthesis in the brain"}, {"measurement": "induction of sedation", "setting": "sedation", "result": "does not induce sedation"}, {"measurement": "fatalities per million prescriptions", "setting": "[1]", "result": 1.3, "unit": "per million prescriptions"}, {"measurement": "prolongation of the ECG interval", "setting": "ECG interval", "result": "does not"}]}, {"smiles": "COc1ccc(C(CN(C)C)C2(O)CCCCC2)cc1", "note": "(centres unmarked) [venlafaxine]", "values": [{"measurement": "fatalities per million prescriptions", "setting": "[1]", "result": 13.2, "unit": "per million prescriptions"}]}, {"smiles": "CNCC[C@H](Oc1cccc2ccccc12)c1cccs1", "note": "[duloxetine]", "values": [{"measurement": "response of neuropathic pain to prior treatment", "setting": "severe neuropathic pain; four diabetic patients, prescribed before lofepramine", "result": "failed to respond"}]}, {"smiles": "CN(C)CCC=C1c2ccccc2CCc2ccccc21", "note": "[amitriptyline]", "values": [{"measurement": "prolongation of the ECG interval", "setting": "ECG interval", "result": "prolong the ECG interval"}]}]}
